Results from the NIST ThermoML archive (doi:10.1016/j.jct.2015.06.009).
± gives the expanded uncertainty stated by the source.

Assay: xn = mol fraction of the nth substance listed
Settings: 101 kPa, Liquid; for speed of sound: Frequency=3 MHz, Sing-around technique in a fixed-path interferometer; for mass density: Vibrating tube method

## COC(C)(C)C [2-methoxy-2-methylpropane] + CCCCO
298.15 K, x1 = 0.03132
  speed of sound: 1233.9 ± 1.2 m/s
  mass density: 803.61 ± 0.15 kg/m3
298.15 K, x1 = 0.06569
  speed of sound: 1227 ± 1.2 m/s
  mass density: 801.27 ± 0.15 kg/m3
298.15 K, x1 = 0.1315
  speed of sound: 1213.6 ± 1.2 m/s
  mass density: 796.77 ± 0.15 kg/m3
298.15 K, x1 = 0.193
  speed of sound: 1200.7 ± 1.2 m/s
  mass density: 792.46 ± 0.15 kg/m3
298.15 K, x1 = 0.2647
  speed of sound: 1185.7 ± 1.2 m/s
  mass density: 787.54 ± 0.15 kg/m3
298.15 K, x1 = 0.3401
  speed of sound: 1170.3 ± 1.2 m/s
  mass density: 782.26 ± 0.15 kg/m3
298.15 K, x1 = 0.3916
  speed of sound: 1159.3 ± 1.2 m/s
  mass density: 778.65 ± 0.15 kg/m3
298.15 K, x1 = 0.4652
  speed of sound: 1144.3 ± 1.2 m/s
  mass density: 773.54 ± 0.15 kg/m3
298.15 K, x1 = 0.5451
  speed of sound: 1128.3 ± 1.1 m/s
  mass density: 768.04 ± 0.15 kg/m3
298.15 K, x1 = 0.6001
  speed of sound: 1117.3 ± 1.1 m/s
  mass density: 764.05 ± 0.15 kg/m3
298.15 K, x1 = 0.6708
  speed of sound: 1103.5 ± 1.1 m/s
  mass density: 759.06 ± 0.16 kg/m3
298.15 K, x1 = 0.7347
  speed of sound: 1091.3 ± 1.1 m/s
  mass density: 754.56 ± 0.16 kg/m3
298.15 K, x1 = 0.7953
  speed of sound: 1079.5 ± 1.1 m/s
  mass density: 750.27 ± 0.16 kg/m3
298.15 K, x1 = 0.8755
  speed of sound: 1063.6 ± 1.1 m/s
  mass density: 744.44 ± 0.16 kg/m3
298.15 K, x1 = 0.9367
  speed of sound: 1050.6 ± 1.1 m/s
  mass density: 739.95 ± 0.16 kg/m3
298.15 K, x1 = 1
  speed of sound: 1036.4 ± 1.1 m/s
  mass density: 735.22 ± 0.16 kg/m3
308.15 K, x1 = 0.03132
  speed of sound: 1200 ± 1.2 m/s
  mass density: 795.86 ± 0.15 kg/m3
308.15 K, x1 = 0.06569
  speed of sound: 1192.7 ± 1.2 m/s
  mass density: 793.42 ± 0.15 kg/m3
308.15 K, x1 = 0.1315
  speed of sound: 1178.4 ± 1.2 m/s
  mass density: 788.76 ± 0.15 kg/m3
308.15 K, x1 = 0.193
  speed of sound: 1164.5 ± 1.2 m/s
  mass density: 784.25 ± 0.15 kg/m3
308.15 K, x1 = 0.2647
  speed of sound: 1148.6 ± 1.2 m/s
  mass density: 779.11 ± 0.15 kg/m3
308.15 K, x1 = 0.3401
  speed of sound: 1131.9 ± 1.1 m/s
  mass density: 773.61 ± 0.15 kg/m3
308.15 K, x1 = 0.3916
  speed of sound: 1120.5 ± 1.1 m/s
  mass density: 769.83 ± 0.15 kg/m3
308.15 K, x1 = 0.4652
  speed of sound: 1104.6 ± 1.1 m/s
  mass density: 764.48 ± 0.15 kg/m3
308.15 K, x1 = 0.5451
  speed of sound: 1087.4 ± 1.1 m/s
  mass density: 758.63 ± 0.16 kg/m3
308.15 K, x1 = 0.6001
  speed of sound: 1076.1 ± 1.1 m/s
  mass density: 754.64 ± 0.16 kg/m3
308.15 K, x1 = 0.6708
  speed of sound: 1061.5 ± 1.1 m/s
  mass density: 749.44 ± 0.16 kg/m3
308.15 K, x1 = 0.7347
  speed of sound: 1048.4 ± 1.1 m/s
  mass density: 744.74 ± 0.16 kg/m3
308.15 K, x1 = 0.7953
  speed of sound: 1036 ± 1.1 m/s
  mass density: 740.28 ± 0.16 kg/m3
308.15 K, x1 = 0.8755
  speed of sound: 1019 ± 1.1 m/s
  mass density: 734.2 ± 0.16 kg/m3
308.15 K, x1 = 0.9367
  speed of sound: 1005.4 ± 1.1 m/s
  mass density: 729.44 ± 0.16 kg/m3
308.15 K, x1 = 1
  speed of sound: 990.57 ± 1.1 m/s
  mass density: 724.64 ± 0.16 kg/m3
318.15 K, x1 = 0.03132
  speed of sound: 1166.3 ± 1.2 m/s
  mass density: 788.07 ± 0.15 kg/m3
318.15 K, x1 = 0.06569
  speed of sound: 1158.4 ± 1.2 m/s
  mass density: 785.54 ± 0.15 kg/m3
318.15 K, x1 = 0.1315
  speed of sound: 1143 ± 1.2 m/s
  mass density: 780.66 ± 0.15 kg/m3
318.15 K, x1 = 0.193
  speed of sound: 1128.5 ± 1.2 m/s
  mass density: 775.99 ± 0.15 kg/m3
318.15 K, x1 = 0.2647
  speed of sound: 1111.7 ± 1.1 m/s
  mass density: 770.65 ± 0.15 kg/m3
318.15 K, x1 = 0.3401
  speed of sound: 1094 ± 1.1 m/s
  mass density: 764.93 ± 0.15 kg/m3
318.15 K, x1 = 0.3916
  speed of sound: 1082 ± 1.1 m/s
  mass density: 761.01 ± 0.16 kg/m3
318.15 K, x1 = 0.4652
  speed of sound: 1065.2 ± 1.1 m/s
  mass density: 755.43 ± 0.16 kg/m3
318.15 K, x1 = 0.5451
  speed of sound: 1047.2 ± 1.1 m/s
  mass density: 749.33 ± 0.16 kg/m3
318.15 K, x1 = 0.6001
  speed of sound: 1034.9 ± 1.1 m/s
  mass density: 745.19 ± 0.16 kg/m3
318.15 K, x1 = 0.6708
  speed of sound: 1019.5 ± 1.1 m/s
  mass density: 739.77 ± 0.16 kg/m3
318.15 K, x1 = 0.7347
  speed of sound: 1005.7 ± 1.1 m/s
  mass density: 734.85 ± 0.16 kg/m3
318.15 K, x1 = 0.7953
  speed of sound: 992.74 ± 1.1 m/s
  mass density: 730.2 ± 0.16 kg/m3
318.15 K, x1 = 0.8755
  speed of sound: 974.75 ± 1.1 m/s
  mass density: 723.89 ± 0.16 kg/m3
318.15 K, x1 = 0.9367
  speed of sound: 960.39 ± 1.1 m/s
  mass density: 719.05 ± 0.17 kg/m3
318.15 K, x1 = 1
  speed of sound: 944.94 ± 1.1 m/s
  mass density: 714.01 ± 0.17 kg/m3
328.15 K, x1 = 0.03132
  speed of sound: 1132.8 ± 1.2 m/s
  mass density: 780.19 ± 0.15 kg/m3
328.15 K, x1 = 0.06569
  speed of sound: 1124.4 ± 1.2 m/s
  mass density: 777.56 ± 0.15 kg/m3
328.15 K, x1 = 0.1315
  speed of sound: 1108.2 ± 1.1 m/s
  mass density: 772.49 ± 0.15 kg/m3
328.15 K, x1 = 0.193
  speed of sound: 1092.7 ± 1.1 m/s
  mass density: 767.64 ± 0.15 kg/m3
328.15 K, x1 = 0.2647
  speed of sound: 1075 ± 1.1 m/s
  mass density: 762.09 ± 0.16 kg/m3
328.15 K, x1 = 0.3401
  speed of sound: 1056.4 ± 1.1 m/s
  mass density: 756.13 ± 0.16 kg/m3
328.15 K, x1 = 0.3916
  speed of sound: 1043.8 ± 1.1 m/s
  mass density: 752.07 ± 0.16 kg/m3
328.15 K, x1 = 0.4652
  speed of sound: 1026.3 ± 1.1 m/s
  mass density: 746.28 ± 0.16 kg/m3
328.15 K, x1 = 0.5451
  speed of sound: 1007 ± 1.1 m/s
  mass density: 739.91 ± 0.16 kg/m3
328.15 K, x1 = 0.6001
  speed of sound: 995.48 ± 1.1 m/s
  mass density: 735.66 ± 0.16 kg/m3
328.15 K, x1 = 0.6708
  speed of sound: 978.48 ± 1.1 m/s
  mass density: 729.95 ± 0.16 kg/m3
328.15 K, x1 = 0.7347
  speed of sound: 963.43 ± 1.1 m/s
  mass density: 724.9 ± 0.16 kg/m3
328.15 K, x1 = 0.8755
  speed of sound: 932.29 ± 1.1 m/s
  mass density: 713.5 ± 0.17 kg/m3
328.15 K, x1 = 0.9367
  speed of sound: 917.28 ± 1.1 m/s
  mass density: 708.44 ± 0.17 kg/m3
328.15 K, x1 = 1
  mass density: 703.38 ± 0.17 kg/m3
